Reference: publication PMC5933261, “A phase 1 dose-escalation study of veliparib with bimonthly FOLFIRI in patients with advanced solid tumours” (British Journal of Cancer, 2018)

Assays:
[1] = system: patients with advanced solid tumours; conditions: human, in vivo
Description: This phase 1 open-label, multicentre, dose-escalation, and safety expansion study evaluated veliparib in combination with bimonthly FOLFIRI in patients with advanced solid tumours. The primary objectives were to determine the maximum tolerated dose (MTD) and establish the recommended phase 2 dose (RP2D) of the combination therapy. Secondary objectives were to assess the safety and tolerability, PK profile, and exploratory efficacy of the combination for each of the FOLFIRI regimens. Patients received veliparib and bimonthly FOLFIRI in 28-day cycles. Veliparib was administered on days 15–19 in cycle 1 and on days 1–5 and 15–19 in subsequent cycles (Fig. 1). Patients with stable disease or better status could continue veliparib and bimonthly FOLFIRI at the investigator’s discretion until progressive disease (PD), unacceptable toxicity, or FOLFIRI discontinuation. The trial was registered with the ClinicalTrials.gov registry (NCT01123876) and was approved by appropriate independent ethics committees/institutional review boards prior to initiation. The study was performed in accordance with the 1964 Declaration of Helsinki and its later amendments. Written informed consent was obtained from all patients before study enrollment.
Dose escalation occurred in three parts to evaluate the MTD/RP2D of three different bimonthly FOLFIRI regimens in combination with veliparib (Fig. 1). A minimum of three patients per dose level were included for dose-toxicity modeling. In part 1, dose escalation began with veliparib twice daily (BID) on days 15–19 of cycle 1 (to allow the determination of single-agent PK for irinotecan, the active metabolite of irinotecan (SN-38), folinic acid, and 5-FU on cycle 1 day 1). In parts 2 and 3, dose escalation began with veliparib BID on day 15 of cycle 1. The differences in the dosing schedules of parts 1, 2, and 3 relate to dosing of irinotecan and 5-FU, and are detailed in Fig. 1. In all parts, veliparib continued to be administered on days 1–5 and 15–19 of each subsequent 28-day cycle. […]

[2] = Pharmacokinetics of FOLFIRI components with and without veliparib (relative bioavailability); conditions: for 90% CIs for the relative bioavailability (Cmax and AUCt): presence (cycle 1 day 15) vs absence (cycle 1 day 1) of veliparib; for Cmax: human, plasma, intravenous, central value
Description: Treatment-emergent adverse events (TEAEs) were assessed from the time of study drug administration until 30 days following discontinuation of study drug. TEAEs were assessed according to the National Cancer Institute Common Terminology Criteria for Adverse Events version 4.0. In dose-escalation cohorts, blood samples were collected on day 15 of cycle 1 for veliparib PK, and on days 1 and 15 of cycle 1 for PK assessment of the FOLFIRI components irinotecan, SN-38, folinic acid (leucovorin), and 5-FU. Exploratory efficacy end points included objective response rate (ORR), time to disease progression (TTP), duration of overall response (DOR), and ECOG performance status. Objective response rate included confirmed complete response (CR) and partial response (PR). Objective response rate evaluation was based on Response Evaluation Criteria in Solid Tumours version 1.1. Objective response rate was calculated for all patients with one or more measurable lesions at baseline. Time to disease progression was defined as the number of days from the date the patient started study drug to the date of the patient’s disease progression. Duration of overall response was defined as the number of days from the day criteria were met for CR or PR (whichever was recorded first) to the date that PD was objectively documented. If a patient was still responding, the patient’s data were censored at the date of the last study visit at which a tumour assessment was performed. Analyses of change and/or percentage change from baseline for tumour size were performed for each scheduled post-baseline visit and for the final visit. ECOG performance status was assessed at all visits, with descriptive statistics summarised for each assessment. In addition, a mean change from baseline to each assessment time was summarised.
The sample size was based on clinical justification. No specific statistical hypothesis tests were planned, with descriptive statistics used for the analysis of safety, PK, and tumour response data. The study population for all safety and preliminary efficacy analyses included patients who received one or more doses of study medication. Data from parts 1–3 of the dose-escalation cohort were combined for assessment of the effect of veliparib on the PK of irinotecan, SN-38, and folinic acid. Linear mixed effects models were performed on natural logarithmically transformed maximum plasma concentration (Cmax) and area under the plasma or serum concentration-time curve (AUC) to compare exposure of irinotecan, SN-38, and folinic acid with and without the administration of veliparib. Point estimates and the corresponding 90% confidence intervals (CIs) of the ratio of central values with and without veliparib administration were calculated.

[3] = system: platinum-sensitive relapsed ovarian cancer and a BRCA1/2 mutation; set-up: method as in PMID 28754483; conditions: maintenance treatment, vs placebo; cited from earlier work
[4] = FOLFIRI + veliparib, cycle 1 day 15

Row | SMILES | AUCt, central value, test [2, 4] | Cmax, central value, test [2, 4] | AUCt, central value, reference ([2]; FOLFIRI alone, cycle 1 day 1) | Cmax, central value, reference ([2]; FOLFIRI alone, cycle 1 day 1) | 90% CIs for the relative bioavailability (Cmax and AUCt) [2] | further results
1 | O=c1[nH]cc(F)c(=O)[nH]1 [5-FU, 5-fluorouracil] |  |  |  |  |  | Tolerability of 400 mg/m^2 bolus 5-FU dose [1]: not tolerated; Median ratio of 5-FU concentrations, cycle 1 day 15 to cycle 1 day 1 ([2]; 2 h after the start of infusion): 1.03; Median ratio of 5-FU concentrations, cycle 1 day 15 to cycle 1 day 1 ([2]; 24 h after the start of infusion): 0.95
2 | O=C(c1cc(Cc2n[nH]c(=O)c3ccccc23)ccc1F)N1CCN(C(=O)C2CC2)CC1 [olaparib] |  |  |  |  |  | Median PFS [3]: 19.1 months
3 | Nc1nc(=O)c2c([nH]1)NC[C@H](CNc1ccc(C(=O)N[C@@H](CCC(=O)O)C(=O)O)cc1)N2C=O [(S)-Leucovorin, levoleucovorin] | 28470 ng·h/mL | 13270 ng/mL | 29360 ng·h/mL | 14220 ng/mL | within the pre-established boundaries of 0.80 to 1.25 | 
4 | Nc1nc2c(c(=O)[nH]1)N(C=O)[C@H](CNc1ccc(C(=O)N[C@@H](CCC(=O)O)C(=O)O)cc1)CN2 [(R)-Leucovorin, dextroleucovorin] | 172200 ng·h/mL | 39860 ng/mL | 180400 ng·h/mL | 41870 ng/mL | within the pre-established boundaries of 0.80 to 1.25 | 
5 | CCc1c2c(nc3ccc(OC(=O)N4CCC(N5CCCCC5)CC4)cc13)-c1cc3c(c(=O)n1C2)COC(=O)[C@]3(O)CC [Irinotecan, irinotecan] |  |  |  |  | within the pre-established boundaries of 0.80 to 1.25 | AUC0–24, central value, reference ([2]; FOLFIRI alone, cycle 1 day 1): 10620 ng·h/mL; Cmax ([2]; reference, FOLFIRI alone, cycle 1 day 1): 1780 ng/mL; Cmax ([2]; test, FOLFIRI + veliparib, cycle 1 day 15): 1790 ng/mL
6 | CCc1c2c(nc3ccc(O)cc13)-c1cc3c(c(=O)n1C2)COC(=O)[C@]3(O)CC [SN-38] | 157.8 ng·h/mL | 17.65 ng/mL | 157.9 ng·h/mL | 18.31 ng/mL | within the pre-established boundaries of 0.80 to 1.25 | 
